# Results: US9856284B2, “Solid forms of a thiophosphoramidate nucleotide prodrug” (Alios BioPharma, Inc., priority 2012, dated 2018)
# System: subgenomic HCV replicon in Huh-7 cells
# Test: HCV replicon assay
# Format: cell-based
# Conditions: Huh-7 cells with subgenomic HCV replicon, luciferase (LUC) reporter, 72 hours, 1% DMSO; read-out: EC50 (50% inhibitory concentration) in HCV replicon cells
# Procedure: Huh-7 cells containing the self-replicating, subgenomic HCV replicon with a stable luciferase (LUC) reporter were cultured in Dulbecco's modified Eagle's medium (DMEM) containing 2 mM L-glutamine and supplemented with 10% heat-inactivated fetal bovine serum (FBS), 1% penicillin-streptomyocin, 1% nonessential amino acids, and 0.5 mg/mL G418.
# Determination of 50% inhibitory concentration (EC50) of compounds in HCV replicon cells were performed by the following procedure. On the first day, 5,000 HCV replicon cells were plated per well in a 96-well plate. On the following day, test compounds were solubilized in 100% DMSO to 100× the desired final testing concentration. Each compound was then serially diluted (1:3) up to 9 different concentrations. Compounds in 100% DMSO are reduced to 10% DMSO by diluting 1:10 in cell culture media. The compounds were diluted to 10% DMSO with cell culture media, which were used to dose the HCV replicon cells in 96-well format. The final DMSO concentration was 1%. The HCV replicon cells were incubated at 37° C. for 72 hours. At 72 hours, cells were processed when the cells are still subconfluent. Compounds that reduce the LUC signal are determined by Bright-Glo Luciferase Assay (Promega, Madison, Wis.). Percent Inhibition was determined for each compound concentration in relation to the control cells (untreated HCV replicon) to calculate the EC50.
structure (smiles),measurement,value
"CC(C)OC(=O)[C@H](C)NP(=S)(OC[C@H]1O[C@@H](n2ccc(=O)[nH]c2=O)[C@](C)(O)[C@@H]1O)Oc1ccccc1 (stereo partly drawn) [Compound 1, 2′-C-methyluridine-5′-(O-phenyl-N—(S)-1-(isopropoxycarbonyl)ethyl)thiophosphoramidate]",EC50,< 1000 nM
